Test results from the supplement of paper PMC10307832.

How the values were obtained:
Assay in all cases: relative viability (nuclei count vs DMSO), 5 days (fraction); higher = more cells survive
AZD1208 + AZD7762 = compound: N[C@@H]1CCCN(c2c(/C=C3\SC(=O)NC3=O)cccc2-c2ccccc2)C1 [AZD1208] + NC(=O)Nc1cc(-c2cccc(F)c2)sc1C(=O)N[C@H]1CCCNC1 [AZD7762] (partner 0.2 µM)
Procedure, shortened: (§1)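 Relative viability was taken as the ratio of nuclei in treated wells to nuclei in vehicle wells. Lung cancer cell lines in 1536-well plates received compounds by pin tool one day after seeding, either one drug alone or a fixed anchor-drug dose plus five library-drug doses (not always all listed) in √10 steps. Nuclei were counted on 4× images after 5 days of treatment, and values are medians of duplicate plates.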

XMD14-99 + Crizotinib = compound: CN1CCN(CC1)C2=CC(=C(C=C2)NC3=NC(=C(S3)C(=O)C4=C(C=CC=C4Cl)Cl)N)OC [XMD14-99] + C[C@@H](Oc1cc(-c2cnn(C3CCNCC3)c2)cnc1N)c1c(Cl)ccc(F)c1Cl [Crizotinib] (partner 1 µM)
Procedure, shortened: as §1

XMD14-99 + Bortezomib = compound: CN1CCN(CC1)C2=CC(=C(C=C2)NC3=NC(=C(S3)C(=O)C4=C(C=CC=C4Cl)Cl)N)OC [XMD14-99] + CC(C)C[C@H](NC(=O)[C@H](Cc1ccccc1)NC(=O)c1cnccn1)B(O)O [Bortezomib] (partner 0.002 µM)
Procedure, shortened: as §1

AZD1208 + Bortezomib = compound: N[C@@H]1CCCN(c2c(/C=C3\SC(=O)NC3=O)cccc2-c2ccccc2)C1 [AZD1208] + CC(C)C[C@H](NC(=O)[C@H](Cc1ccccc1)NC(=O)c1cnccn1)B(O)O [Bortezomib] (partner 0.002 µM)
Procedure, shortened: as §1

| Cell Line | relative viability (AZD1208 + AZD7762; first compound 0.08 µM) | relative viability (AZD1208 + AZD7762; first compound 0.253 µM) | relative viability (AZD1208 + AZD7762; first compound 0.8 µM) | relative viability (AZD1208 + AZD7762; first compound 2.53 µM) | relative viability (AZD1208 + AZD7762; first compound 8 µM) | relative viability (XMD14-99 + Crizotinib; first compound 0.08 µM) | relative viability (XMD14-99 + Crizotinib; first compound 0.8 µM) | relative viability (XMD14-99 + Crizotinib; first compound 2.53 µM) | relative viability (XMD14-99 + Crizotinib; first compound 8 µM) | relative viability (XMD14-99 + Bortezomib; first compound 0.08 µM) | relative viability (XMD14-99 + Bortezomib; first compound 0.8 µM) | relative viability (XMD14-99 + Bortezomib; first compound 2.53 µM) | relative viability (XMD14-99 + Bortezomib; first compound 8 µM) | relative viability (AZD1208 + Bortezomib; first compound 0.253 µM) | relative viability (AZD1208 + Bortezomib; first compound 0.8 µM) | relative viability (AZD1208 + Bortezomib; first compound 2.53 µM) | relative viability (AZD1208 + Bortezomib; first compound 8 µM) | relative viability (AZD1208 + Bortezomib; first compound 0.08 µM) |
| --- | --- | --- | --- | --- | --- | --- | --- | --- | --- | --- | --- | --- | --- | --- | --- | --- | --- | --- |
| NCI-H2342 | 0.553 | 0.417 | 0.461 | 0.474 | 0.409 | – | – | – | – | – | – | – | – | – | – | – | – | – |
| SK-MES-1 | – | – | – | – | – | 0.991 | 0.946 | 1.01 | 0.639 | – | – | – | – | – | – | – | – | – |
| NCI-H1993 | 0.679 | 0.654 | 0.629 | 0.757 | 0.579 | 0.952 | 0.847 | 0.792 | 0.68 | 1.14 | 0.956 | 0.92 | 0.864 | 1.04 | 0.925 | 0.998 | 0.888 | – |
| HCC-366 | 0.368 | 0.362 | 0.371 | 0.41 | 0.387 | 0.494 | 0.503 | 0.478 | 0.497 | 1.04 | 1.05 | 1.03 | 0.884 | 1.09 | 0.943 | 1.03 | 0.973 | 1.02 |
| 201T | 0.669 | 0.654 | 0.565 | 0.693 | 0.511 | 1.03 | 1.02 | 1.01 | 0.917 | 1.11 | 1.08 | 1.03 | 1.03 | 1.14 | 1.13 | 1.16 | 1.13 | 1.13 |
| HCC-827 | 0.205 | 0.259 | 0.237 | 0.239 | 0.197 | 0.857 | 0.906 | 0.754 | 0.752 | 1.12 | 0.994 | 0.976 | 0.802 | 1.06 | 0.97 | 1.07 | 1.14 | 1.13 |
| NCI-H650 | 1.05 | 1.09 | 0.795 | 0.833 | 0.871 | 0.613 | 0.728 | 0.684 | 0.623 | 0.97 | 0.847 | 0.724 | 0.649 | 0.774 | 0.788 | 0.438 | 0.664 | 1.16 |
| NCI-H2085 | 1 | 1.13 | 0.911 | 0.892 | 1.04 | 0.833 | 0.814 | 0.843 | 0.56 | 1.13 | 1.03 | 0.954 | 0.745 | 1.2 | 0.938 | 1.14 | 1.05 | 1.07 |
| NCI-H596 | 1.17 | 1.07 | 1.01 | 1.01 | 0.666 | 1.01 | 0.974 | 1.04 | 1.02 | 0.962 | 1.07 | 1.07 | 0.797 | 0.857 | 0.98 | 1.01 | 0.878 | 0.578 |
| SK-LU-1 | – | – | – | – | – | 0.788 | 0.923 | 0.796 | 0.58 | 1.43 | 1.42 | 1.03 | 0.943 | 1.24 | 1.09 | 0.996 | 0.812 | 1.36 |
| A-427 | 0.7 | 0.789 | 0.665 | 0.653 | 0.689 | 0.83 | 0.746 | 0.614 | 0.658 | 0.933 | 0.924 | 0.77 | 0.829 | 0.939 | 0.963 | 0.936 | 0.884 | 1 |
| NCI-H460 | 0.844 | 0.716 | 0.643 | 0.824 | 0.7 | 0.876 | 0.888 | 0.955 | 0.667 | 1.06 | 1.15 | 0.983 | 0.784 | 1.63 | 1.06 | 1.13 | 0.925 | 1.04 |
| NCI-H1703 | 0.116 | 0.0963 | 0.18 | 0.128 | 0.102 | 0.611 | 0.52 | 0.58 | 0.587 | 0.334 | 0.235 | 0.268 | 0.211 | 0.159 | 0.246 | 0.253 | 0.305 | 0.277 |
| NCI-H1792 | 0.815 | 0.739 | – | 0.593 | 0.56 | 1.02 | 0.956 | 1.01 | 0.709 | 0.982 | 0.888 | 0.849 | 0.66 | 0.987 | 0.903 | 0.958 | 0.86 | 0.999 |
| Calu-6 | – | – | – | – | – | 0.807 | 0.756 | 0.747 | 0.513 | 0.944 | 0.875 | 0.85 | 0.598 | 1.02 | 0.976 | 1.03 | 0.929 | 1.01 |
| SW 1573 | – | – | – | – | – | 0.792 | 0.878 | 0.793 | 0.757 | 1.09 | 0.868 | 0.932 | 0.936 | 1.14 | 0.935 | 0.907 | 0.717 | 0.963 |
| RERF-LC-KJ | 0.991 | 1.08 | 0.631 | 0.759 | 0.611 | 0.891 | 0.836 | 0.845 | 0.699 | 1.07 | 1.18 | 1.08 | 0.852 | 1.21 | 1.06 | 1 | 0.818 | 1.1 |
| EMC-BAC-2 | 1.21 | 1.13 | 0.866 | 1.03 | 0.875 | 0.801 | 0.775 | 0.743 | 0.62 | 0.989 | 1.08 | 0.995 | 0.923 | 1.16 | 1.05 | 1.02 | 0.919 | 1.15 |
| LK-2 | 0.307 | 0.167 | – | 0.11 | 0.144 | 0.232 | 0.193 | 0.2 | 0.223 | – | – | – | – | – | – | – | – | – |
| NCI-H2228 | – | – | – | – | – | 0.37 | 0.447 | 0.48 | 0.301 | 1.17 | 0.974 | 0.871 | 0.337 | 1.15 | 0.865 | – | 0.704 | 1.15 |
| NCI-H322M | 0.627 | 0.545 | – | 0.53 | 0.552 | 0.927 | 0.972 | 0.905 | 0.848 | 1.12 | 1.33 | 1.44 | 1.24 | 1.31 | 1.21 | 1.15 | 1.25 | 1.21 |
